Assay results taken from publication PMC10917816, “Synthesis and evaluation of coumarin derivatives on antioxidative, tyrosinase inhibitory activities, melanogenesis, and in silico investigations” (Scientific Reports, 2024).
Entries after “also recorded” stand apart in the source; their conditions may differ. Where two headings read alike, the source gives them in different places.

How the values were obtained:
mushroom tyrosinase [1] = molecular target: T1, mushroom tyrosinase (Agaricus bisporus, UniProt C7FF04); test: Mushroom tyrosinase activity assay (L-DOPA substrate); format: biochemical; conditions: for activity at 100 µM: <100 inhibitor, >100 activator; for Activity (inhibitor or activator of mushroom tyrosinase): classified from %activity at 100 µM (<100 inhibitor, >100 activator)
Protocol: Samples were dissolved in a mixture of DMSO and the phosphate buffer solution (40%DMSO, 20 µL) and were added into a 96-well microplate filled with phosphate buffer (20 mM, pH 6.8, 140 µL), mushroom tyrosinase (30 U/mL, 20 µL). After 10 min of pre-incubation at room temperature (25 °C), 20 µL of a 0.85 mM L-DOPA (3,4-dihydroxyphenylalanine) solution in phosphate buffer was added to the mixture. (Final concentration of the tested compound equaled 100 µM and final DMSO content equaled 4%). […] Instead of an inhibitor solution, phosphate buffer was added as the negative control. The percentage of tyrosinase activity was calculated as follows: %Activity = (Sample) × 100/Blank, where Blank = (OD of Blank solution at 10 min)—(OD of Blank solution at 0 min) and Sample = (OD of Sample solution at 10 min)—(OD of Sample solution at 0 min). Each sample was analyzed in triplicate (n = 3). […] Each sample was examined in triplicate.
Target sequence in this assay (C7FF04 1-392): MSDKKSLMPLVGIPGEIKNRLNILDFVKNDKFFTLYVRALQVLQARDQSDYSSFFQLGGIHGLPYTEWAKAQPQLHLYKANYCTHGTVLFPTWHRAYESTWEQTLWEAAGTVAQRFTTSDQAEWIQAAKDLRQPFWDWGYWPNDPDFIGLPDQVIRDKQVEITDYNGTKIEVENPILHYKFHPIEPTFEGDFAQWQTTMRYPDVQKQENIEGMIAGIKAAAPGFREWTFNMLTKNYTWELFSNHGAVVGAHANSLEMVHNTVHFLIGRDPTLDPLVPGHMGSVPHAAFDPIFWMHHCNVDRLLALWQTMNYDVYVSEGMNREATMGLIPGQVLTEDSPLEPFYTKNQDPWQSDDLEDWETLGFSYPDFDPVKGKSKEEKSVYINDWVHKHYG

B16F10 melanoma cells = test: Cell viability assay (MTT); format: cell-based, Mus musculus; conditions: 48 h
Protocol: (§1) B16F10 cells were incubated with compounds 13 (25–100 µM) and 14 (25–150 µM) for 48 h. KA (50–200 µM) and 8-MOP (50–150 µM) were used as reference compounds for the tyrosinase inhibitor and the activator, respectively. […] (%viability decreased to 50%).
(§2) B16F10 cells (ATCC-CRL-6475, USA) were cultured in Dulbecco’s modified eagle medium (DMEM) containing 10% fetal bovine serum (FBS), 100 U/mL penicillin, and 1 μg/mL streptomycin. Cell viability was evaluated using the MTT assay. B16F10 cells (5 × 10^3 cells/well) were cultured in a 96-well plate at 37 °C in a 5% CO2 incubator for 24 h. Tested compounds dissolved in DMSO/H2O (40% v/v) at different concentrations were added to sample wells, and the cells were further incubated at 37 °C in a 5% CO2 incubator for 48 h. Then, 50 µL of methylthiazolyldiphenyl-tetrazolium bromide (MTT) solution (0.5 mg/ml in 10 mM phosphate buffer, pH 7.4) was added to each well and left under a CO2 incubator for 2 h. The formazan crystals formed were dissolved in DMSO, and the absorbance was measured at 570 nm. Percent viability was calculated as the percent of surviving cells in the well compared to the control cells.

B16F10 cells = test: Melanin content assay; format: cell-based, Mus musculus; conditions: 48 h
Protocol: Compound 13 and compound 14 were also determined for their melanogenesis activities in the B16F10 cells. Intracellular melanin content was measured. […] However, the increase in melanin content in the cells was lower than cells treated with 8-MOP (Fig. 8B).
The method for the melanin content assay was modified from Lee et al.[37]. B16F10 (8 × 10^4 cell/mL) cells were seeded in a 6-well plate and incubated at 37 °C in a 5% CO2 incubator for 24 h. The tested and reference compounds in various concentrations were mixed with α-melanocyte stimulating hormone (α-MSH, 10 nM) and added to the well. The cells were continuously incubated at 37 °C for 48 h. Then, the cells were washed twice with 10 mM phosphate buffer pH 7.4. 1 M NaOH (0.2 mL) was added to each well and warmed at 65 °C for 1 h. The mixture was centrifuged at 12,000 rpm for 10 min. The absorbance of the supernatant was measured at 405 nm. The percent melanin content in the treatment group was obtained from the absorbance and calculated as a percentage compared to the untreated group.

[2] = Lipid peroxidation inhibitory activity (thiobarbituric acid test, linoleic acid); conditions: at 1 mg/ml of tested compound; TBA test
murine tyrosinase = conditions: broad range; cited from earlier work
[3] = Cell viability assay (MTT); format: cell-based, Mus musculus; conditions: mouse, B16F10 melanoma cells
Protocol: as §1, §2

mushroom tyrosinase [4] = molecular target: T1, mushroom tyrosinase; test: Enzyme kinetic study (Lineweaver–Burk plot); format: biochemical; parameters: purchased Sigma-Aldrich or Merck AG; conditions: double-reciprocal (Lineweaver–Burk) plots
Protocol: Double-reciprocal plots were used to investigate the mechanisms of mushroom tyrosinase inhibition by compound 13 (Fig. 2).
Utilizing the same protocol as the tyrosinase activity assay, an enzyme kinetics study was conducted with compound 13. A Michaelis–Menten plot was generated by varying the substrate concentration (25–10,000 µM) and reaction rate under conditions with and without inhibitors. A Lineweaver–Burk plot was generated, and the inhibition mode of the inhibitor was determined based on the variation of Km and Vmax as the inhibitor concentration changed.
Target sequence in this assay (C7FF04 1-392 limits assumed): as the sequence (C7FF04 1-392) above

[5] = at 100 µM of tested compound, read-out: Mushroom tyrosinase %Activity ± S.D.

SMILES	activity at 100 µM (mushroom tyrosinase [1]; [5])	Activity (inhibitor or activator of mushroom tyrosinase) (mushroom tyrosinase [1])	melting point	Lipid peroxidation %Inhibition ± S.D. [2]	also measured
COc1ccc2c(CC(=O)NCCc3ccc(O)cc3)cc(=O)oc2c1 [Compound 14, N-(4-hydroxyphenethyl)-2-(7-methoxy-2-oxo-2H-chromen-4-yl)acetamide]	123 ± 13.4%	Activator	152 to 153 °C	26.66 ± 1.67%	Cytotoxicity against B16F10 cells (B16F10 melanoma cells; 25–100 μM): did not show cytotoxicity; Effect on melanogenesis (intracellular melanin content) in B16F10 cells (B16F10 cells; 25–100 μM, compared with 8-MOP): melanogenesis enhancement in B16F10 cells in a dose-dependent manner, however, inferior to the 8-MOP; also recorded: effectively enhanced melanogenesis in B16F10 cells in a dose-dependent manner
CCOC(=O)C(Cc1ccc(O)cc1)NC(=O)Cc1cc(=O)oc2cc(OC)c(O)cc12 (stereo not drawn) [Compound 16, Ethyl 2-(2-(6-hydroxy-7-methoxy-2-oxo-2H-chromen-4-yl)acetamido)-3-(4-hydroxyphenyl) propanoate]	100 ± 3.13%	Activator	198 to 200 °C	79.31 ± 2.77%	–
CCOC(=O)C(Cc1ccccc1)NC(=O)Cc1cc(=O)oc2cc(O)ccc12 (stereo not drawn) [Compound 7, Ethyl 2-(2-(7-hydroxy-2-oxo-2H-chromen-4-yl)acetamido)-3-phenylpropanoate]	86.2 ± 10.5%	Inhibitor	139 to 140 °C	98.66 ± 1.57%	–
CCOC(=O)C(Cc1ccccc1)NC(=O)Cc1cc(=O)oc2cc(OC)c(O)cc12 (stereo not drawn) [Compound 15, Ethyl 2-(2-(6-hydroxy-7-methoxy-2-oxo-2H-chromen-4-yl)acetamido)-3-phenylpropanoate]	90.8 ± 12.4%	Inhibitor	184 to 185 °C	98.06 ± 0.54%	–
CCOC(=O)C(Cc1ccccc1)NC(=O)Cc1cc(=O)oc2cc(OC)ccc12 (stereo not drawn) [Compound 11, Ethyl 2-(2-(7-methoxy-2-oxo-2H-chromen-4-yl)acetamido)-3-phenylpropanoate]	81.3 ± 3.72%	Inhibitor	144 to 145 °C	87.68 ± 1.09%	–
COc1c2occc2cc2ccc(=O)oc12 [Compound 8-MOP, 8-methoxypsoralen, reference compound]	–	Activator	–	–	activity at 100 µM (mushroom tyrosinase [1]; read-out: Mushroom tyrosinase %Activity ± S.D., at 100 µM of tested compound): 101 ± 6.18%
CCOC(=O)C(Cc1c[nH]c2ccccc12)NC(=O)Cc1cc(=O)oc2cc(OC)c(O)cc12 (stereo not drawn) [Compound 17]	75.9 ± 8.95%	Inhibitor	173 to 174 °C	91.84 ± 5.39%	–
CCOC(=O)C(Cc1ccc(O)cc1)NC(=O)Cc1cc(=O)oc2cc(O)ccc12 (stereo not drawn) [Compound 8, Ethyl 2-(2-(7-hydroxy-2-oxo-2H-chromen-4-yl)acetamido)-3-(4-hydroxyphenyl)propanoate]	107 ± 9.89%	Activator	152 to 154 °C	44.32 ± 4.16%	–
CCOC(=O)C(Cc1ccc(O)cc1)NC(=O)Cc1cc(=O)oc2cc(OC)ccc12 (stereo not drawn) [Compound 12, Ethyl 2-(2-(7-methoxy-2-oxo-2H-chromen-4-yl)acetamido)-3-(4-hydroxyphenyl) propanoate]	113 ± 8.16%	Activator	154 to 155 °C	77.84 ± 3.25%	–
CCOC(=O)C(Cc1cc2ccccc2[nH]1)NC(=O)Cc1cc(=O)oc2cc(O)ccc12 (stereo not drawn) [Compound 9, Ethyl 2-(2-(7-hydroxy-2-oxo-2H-chromen-4-yl)acetamido)-3-(1H-indol-2-yl)propanoate]	98.3 ± 2.55%	Inhibitor	185 to 188 °C	77.57 ± 4.11%	–
O=c1cc(CO)occ1O [KA, kojic acid]	–	–	–	–	Activity against murine tyrosinase (murine tyrosinase): > 100 µM
CCOC(=O)C(Cc1c[nH]c2ccccc12)NC(=O)Cc1cc(=O)oc2cc(OC)ccc12 (stereo not drawn) [Compound 13]	51.1 ± 9.45%	Inhibitor	162 to 163 °C	67.88 ± 5.48%	viability at 48 h, 75 µM ([3]; 75 µM): 50%; viability at 48 h ([3]; 25–50 µM): > 80%; Cytotoxicity against B16F10 cells (B16F10 melanoma cells; 25–50 μM): did not show cytotoxicity; Effect on melanogenesis (intracellular melanin content) in B16F10 cells (B16F10 cells; 25 μM, with α-MSH, compared with KA at 100 μM): inhibited melanogenesis equally to KA at 100 μM; Effect on melanogenesis (intracellular melanin content) in B16F10 cells (B16F10 cells; 50 μM, with α-MSH, compared with KA at 100 μM): suppressed melanogenesis in B16F10 cells with two times higher potency than KA; also recorded: suppressed melanogenesis with approximately two times higher potency than KA at 100 μM; also recorded: higher melanin suppression at a lower concentration (50 μM) than KA (100 μM); Mechanism of mushroom tyrosinase inhibition (mushroom tyrosinase [4]): uncompetitive inhibition; also recorded: uncompetitively inhibited the tyrosinase enzyme; also recorded: uncompetitive tyrosinase inhibitor
Cc1cc(C(C)(C)C)c(O)c(C(C)(C)C)c1 [BHT, butylated hydroxytoluene, reference compound]	–	–	–	62.90 ± 3.56%	–
COc1cc2oc(=O)cc(CC(=O)NCCc3ccc(O)cc3)c2cc1O [Compound 18, N-(4-hydroxyphenethyl)-2-(6-hydroxy-7-methoxy-2-oxo-2H-chromen-4-yl)acetamide]	115 ± 3.87%	Activator	227 to 228 °C	63.40 ± 0.89%	–
O=C(Cc1cc(=O)oc2cc(O)ccc12)NCCc1ccc(O)cc1 [Compound 10, N-(4-hydroxyphenethyl)-2-(7-hydroxy-2-oxo-2H-chromen-4-yl)acetamide]	121 ± 7.51%	Activator	223 to 225 °C	27.51 ± 2.78%	–
